Experimental data published in publication PMC9368981, “The γ-Core Motif Peptides of AMPs from Grasses Display Inhibitory Activity against Human and Plant Pathogens” (International Journal of Molecular Sciences, 2022).
Where a SMILES comes first, the peptide text is derived from it.

Legend:
[1] = tested on: F. culmorum VKM F-2303; test: Growth inhibition of F. culmorum in microtiter plates; type: cell-based, Fusarium culmorum; settings: 300 µM peptide; spores in half-strength potato dextrose broth, 38 h, absorbance 595 nm; vs control without peptide; triplicate, mean
Experimental: (§1) The antimicrobial activity of synthetic peptides was tested against a panel of human and plant pathogens. Among them were the yeasts Candida albicans VKM Y-2994 and Cryptococcus neoformans VKM Y-2755, the plant pathogenic bacteria Clavibacter michiganensis subsp. michiganensis VKM Ac-1403, Pseudomonas savastanoi pv. savastanoi VKM B-1546 and Pectobacterium carotovorum subsp. carotovorum VKM B-1247, and four Fusarium species (F. oxysporum VKM F-137, F. culmorum VKM F-2303, F. solani VKM F-142 and F. verticillioides VKM F-670), which cause diseases in plants and humans. The antimicrobial activity was first measured at the peptide concentration of 300 µM (Figure 3).
(§2) The antimicrobial activity of synthetic peptides was tested against the yeasts Candida albicans VKM Y-2994 and Cryptococcus neoformans VKM Y-2755, the bacteria Pseudomonas savastanoi pv. savastanoi VKM B-1546, Pectobacterium carotovorum subsp. carotovorum VKM B-1247 and Clavibacter michiganensis subsp. michiganensis VKM Ac-1403, and four Fusarium species: F. culmorum VKM F-2303, F. oxysporum VKM F-137, F. solani VKM F-142 and F. verticillioides VKM F-670. All cultures were obtained from the All-Russian Collection of Microorganisms (VKM). […] The antimicrobial activity of the peptides was measured in immunoassay microtiter plates according to the protocol of Broekaert et al.. […]

[2] = tested on: F. oxysporum VKM F-137; test: Growth inhibition of F. oxysporum in microtiter plates; type: cell-based, Fusarium oxysporum; settings: 300 µM peptide; spores in half-strength potato dextrose broth, 38 h, absorbance 595 nm; vs control without peptide; triplicate, mean
Experimental: as §1, §2

[3] = tested on: F. solani VKM F-142; test: Growth inhibition of F. solani in microtiter plates; type: cell-based, Fusarium solani; settings: 300 µM peptide; spores in half-strength potato dextrose broth, 38 h, absorbance 595 nm; vs control without peptide; triplicate, mean
Experimental: as §1, §2

[4] = tested on: F. verticillioides VKM F-670; type: cell-based, Fusarium verticillioides; settings: 300 µM peptide; spores in half-strength potato dextrose broth, 38 h, absorbance 595 nm; vs control without peptide; triplicate, mean
Experimental: as §1
(§3) The antimicrobial activity of synthetic peptides was tested against the yeasts Candida albicans VKM Y-2994 and Cryptococcus neoformans VKM Y-2755, the bacteria Pseudomonas savastanoi pv. savastanoi VKM B-1546, Pectobacterium carotovorum subsp. carotovorum VKM B-1247 and Clavibacter michiganensis subsp. michiganensis VKM Ac-1403, and four Fusarium species: F. culmorum VKM F-2303, F. oxysporum VKM F-137, F. solani VKM F-142 and F. verticillioides VKM F-670. All cultures were obtained from the All-Russian Collection of Microorganisms (VKM). The details of the production and storage of cultures of microorganisms used in this study are described at the VKM Home page. Antimicrobial assays were accomplished according to the procedure described earlier. In short, yeasts were grown on the YPD-P medium and the bacteria P. carotovorum and Cl. michiganensis were cultured on a modified YPD-P medium. The Fusarium fungi were grown on potato dextrose agar at 25 °C for 7–8 days, and spores were washed off from the surface of the mycelia with sterile, distilled water. The antimicrobial activity of the peptides was measured in immunoassay microtiter plates according to the protocol of Broekaert et al.. With yeasts and bacteria, each well contained 10 µL of the tested peptide solution (final concentrations of 10–300 µM) in water, 80 µL of the medium and 10 µL of the microbial suspension. The plates were incubated at 30 °C for 24 h, and the absorbance of the suspension was measured on an Efos 9305 spectrophotometer (Sapphire, Moscow, Russia) at 594 nm. For Fusarium species, the wells of a microtiter plate were filled with 90 µL of the fungal spore suspension in half-strength potato dextrose broth at a concentration of 2000–3000 spores in 100 µL and 10 µL of aqueous solutions of peptides at final concentrations of 10–300 µM. After 38 h of incubation, the absorbance was recorded at 595 nm on a FilterMax F5 Multi-Mode Microplate Reader (Molecular Devices, San Jose, CA, USA). Antimicrobial activity is expressed in IC50 values, which show the concentration necessary for 50% inhibition of the pathogen growth; this was determined from a graph showing the activity dependence on peptide concentration.
(§4) For each pathogen, experiments on the peptide antimicrobial activity evaluation were carried out in triplicate per treatment. Mean values, standard deviations (SD), and the significance of differences (p ≤ 0.05) of the means between treatments and controls (t-test for independent variables) were determined using STATISTICA v. 6.1 software (StatSoft Inc., Tulsa, OK, USA).

[5] = tested on: Clavibacter michiganensis subsp. michiganensis VKM Ac-1403; test: Growth inhibition of Cl. michiganensis in microtiter plates; type: cell-based; settings: inhibition curves (Figure 4)
Experimental: as §1
The antimicrobial activity of synthetic peptides was tested against the yeasts Candida albicans VKM Y-2994 and Cryptococcus neoformans VKM Y-2755, the bacteria Pseudomonas savastanoi pv. savastanoi VKM B-1546, Pectobacterium carotovorum subsp. carotovorum VKM B-1247 and Clavibacter michiganensis subsp. michiganensis VKM Ac-1403, and four Fusarium species: F. culmorum VKM F-2303, F. oxysporum VKM F-137, F. solani VKM F-142 and F. verticillioides VKM F-670. All cultures were obtained from the All-Russian Collection of Microorganisms (VKM). […] The antimicrobial activity of the peptides was measured in immunoassay microtiter plates according to the protocol of Broekaert et al.. […] The plates were incubated at 30 °C for 24 h, and the absorbance of the suspension was measured on an Efos 9305 spectrophotometer (Sapphire, Moscow, Russia) at 594 nm. […] After 38 h of incubation, the absorbance was recorded at 595 nm on a FilterMax F5 Multi-Mode Microplate Reader (Molecular Devices, San Jose, CA, USA). […]
as §4, with “6.1 software (StatSoft Inc., Tulsa, OK, USA).” left out

[6] = tested on: Cr. neoformans cells; test: Propidium iodide staining, fluorescence microscopy; type: cell-based, Cryptococcus neoformans; settings: peptide 300 µM, 30 °C, 1 h, 0.03 mM PI 15 min
Experimental: (§5) Their ability to disturb the integrity of pathogen membranes was assayed by staining with propidium iodide of C. albicans and Cr. neoformans cells preliminarily incubated with the peptides. The results were visualized by fluorescent microscopy and quantified by flow cytometry (Figure 5, Figure 6 and Figure 7).
(§6) Staining of yeast cells with propidium iodide in the presence of the γ-core peptides was carried out according to the protocol described earlier. C. albicans or Cr. neoformans cells (24 h culture in YPD-P at a cell concentration of 2 × 10^8/mL) were incubated with the peptide at a concentration of 300 µM at 30 °C for 1 h. After incubation, 1 mL of the cells was stained with 0.03 mM propidium iodide (Sigma, St. Louis, MO, USA). The staining proceeded for 15 min at 30 °C. The fluorescence was recorded on an AXIO Imager A1 fluorescence microscope (ZEISS, Göttingen, Germany) using a Zeiss filter set 56 HE.

[7] = tested on: C. albicans cells; test: Propidium iodide staining, fluorescence microscopy; type: cell-based, Candida albicans; settings: peptide 300 µM, 30 °C, 1 h, 0.03 mM PI 15 min
Experimental: as §5, §6

[8] = tested on: Cryptococcus neoformans VKM Y-2755; type: cell-based; settings: inhibition curves (Figure 4); peptide 50 µM
Experimental: as §1, §3, §4

[9] = tested on: Pseudomonas savastanoi pv. savastanoi VKM B-1546; type: cell-based; settings: 300 µM peptide; 30 °C, 24 h, absorbance 594 nm; vs control without peptide; triplicate, mean
Experimental: as §1, §3, §4

Q: How did the “Pathogen inhibition, % (F. culmorum)” value [1] turn out when `CC[C@H](C)[C@H](NC(=O)[C@@H](NC(=O)[C@H](Cc1c[nH]cn1)NC(=O)[C@@H](NC(=O)[C@H](C)NC(=O)[C@@H](NC(=O)[C@H](CS)NC(=O)[C@H](CS)NC(=O)CNC(=O)[C@@H](N)CO)[C@@H](C)O)C(C)C)[C@@H](C)O)C(=O)NCC(=O)N[C@@H](CCCCN)C(=O)N[C@@H](CCC(N)=O)C(=O)N[C@@H](CO)C(=O)N1CCC[C@H]1C(=O)N[C@@H](CCCCN)C(=O)N[C@@H](CS)C(=O)O` [TkLTPd5.6_59-75] (H-SGCCTAVHTIGKQSPKC-OH; N-terminus and C-terminus assumed) was run?
A: inactive

Q: And the “Pathogen inhibition, % (F. oxysporum)” value [2]?
A: inactive

Q: And the “Pathogen inhibition, % (F. solani)” value [3]?
A: inactive

Q: And the “Pathogen inhibition, % (F. verticillioides)” value [4]?
A: inactive

Q: What does the source list for `CC(C)C[C@H](NC(=O)[C@H](CCCNC(=N)N)NC(=O)[C@H](C)NC(=O)[C@H](CS)NC(=O)[C@H](CS)NC(=O)CNC(=O)[C@@H]1CCCN1)C(=O)N[C@@H](CCCNC(=N)N)C(=O)N[C@@H](C)C(=O)N[C@@H](CCC(N)=O)C(=O)N[C@@H](CCCNC(=N)N)C(=O)N[C@@H](C)C(=O)N[C@@H](CS)C(=O)O` [TkLTP2.25_50-62] (H-PGCCARLRAQRAC-OH; N-terminus and C-terminus assumed)?
A: Inhibition of Cl. michiganensis at the highest tested concentration ([5]; highest tested concentration of 300 µM): 95%; Membrane permeabilization of Cr. neoformans cells (PI staining) [6]: induced membrane permeabilization; Membrane permeabilization of C. albicans cells (PI staining) [7]: induced membrane permeabilization

Q: Which “Inhibition of Cr. neoformans at 50 µM” value [8] does the source give for `C[C@H](NC(=O)[C@H](CCCNC(=N)N)NC(=O)[C@H](CCCCN)NC(=O)[C@H](CS)NC(=O)[C@H](Cc1ccccc1)NC(=O)[C@H](CS)NC(=O)[C@H](CCCCN)NC(=O)[C@H](CCCNC(=N)N)NC(=O)[C@H](C)NC(=O)[C@H](Cc1ccccc1)NC(=O)[C@H](CC(N)=O)NC(=O)[C@H](Cc1c[nH]cn1)NC(=O)[C@@H](NC(=O)[C@H](Cc1c[nH]cn1)NC(=O)[C@H](CS)NC(=O)[C@H](CCC(=O)O)NC(=O)CN)[C@@H](C)O)C(=O)N[C@@H](CS)C(=O)O` [DEFL1-36_65-82] (H-GECHTHNFARKCFCKRAC-OH; N-terminus and C-terminus assumed) here?
A: complete inhibition

Q: And the “Pathogen inhibition, % (Ps. savastanoi)” value [9]?
A: failed to suppress

Q: And the “Inhibition of Cl. michiganensis at 100 µM” value ([5]; peptide 100 µM)?
A: complete inhibition
